Results on two compounds are retold here after patent US20220280661A1, “GLUCOCORTICOID RECEPTOR RADIOLIGANDS AND METHODS FOR THEIR PREPARATION AND USE” (The Regents of the University of California, priority 2019, published 2022).

In one data set the target is T1, GR (Homo sapiens, UniProt P04150).
T1 construct: evaluated using ^3H-ligand displacement assays on cells; endogenous in cells; host or cells: DU145
T1 sequence (P04150 1-777): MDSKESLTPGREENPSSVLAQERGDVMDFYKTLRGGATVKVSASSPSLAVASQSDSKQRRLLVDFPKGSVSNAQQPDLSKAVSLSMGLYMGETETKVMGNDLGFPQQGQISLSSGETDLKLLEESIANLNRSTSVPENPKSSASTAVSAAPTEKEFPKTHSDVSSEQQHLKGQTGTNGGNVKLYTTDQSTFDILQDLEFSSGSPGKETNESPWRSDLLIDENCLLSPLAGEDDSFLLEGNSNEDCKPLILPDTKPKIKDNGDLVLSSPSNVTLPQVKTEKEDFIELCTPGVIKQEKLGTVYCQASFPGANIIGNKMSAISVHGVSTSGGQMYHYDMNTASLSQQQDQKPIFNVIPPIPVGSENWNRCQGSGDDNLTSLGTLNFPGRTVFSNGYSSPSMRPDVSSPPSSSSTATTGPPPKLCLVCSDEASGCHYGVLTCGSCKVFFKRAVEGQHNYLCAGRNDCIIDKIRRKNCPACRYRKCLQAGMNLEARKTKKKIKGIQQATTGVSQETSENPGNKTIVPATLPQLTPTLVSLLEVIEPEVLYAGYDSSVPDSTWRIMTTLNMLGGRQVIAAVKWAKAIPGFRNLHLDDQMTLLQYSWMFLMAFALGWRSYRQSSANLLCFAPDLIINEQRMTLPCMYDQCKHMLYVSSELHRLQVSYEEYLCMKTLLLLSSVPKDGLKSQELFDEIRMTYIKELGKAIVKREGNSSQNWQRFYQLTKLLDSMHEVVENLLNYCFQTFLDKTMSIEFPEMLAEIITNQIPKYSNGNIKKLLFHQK
Nature of the data set: 3H-ligand displacement assay on cells, GR (DU145). Conditions: for selectivity for GR over other subfamily 3 nuclear hormone receptors: relative affinity. Type of data set: binding. As for the experimental part: The affinity of YJH08 for GR and the other type 1 subfamily 3 nuclear hormone receptors was evaluated using ^3H-ligand displacement assays on cells. The Kd for subfamily 3 class C nuclear hormone receptors was determined on cells by displacing ^3H-steroidal agonists for the respective receptor. […] The Kd was determined using the following cell lines: DU145 (GR), LNCaP-AR (AR), MCF7 (PR, ER), and HEK293 transiently overexpressing full length human MR.
The cold ligands and ^3H-steroids were co-incubated on cells in PBS at room temperature for one hour. Following incubation, the cells were washed twice with ice cold PBS and the unbound activity was retained for analysis. The cells were lysed with 1 mL of 1M NaOH and collected. Bound and unbound fractions were counted in a liquid scintillation counter and expressed as a percentage of the total activity added per equal relative number of cells. […] These experiments were performed at three concentrations of experimental ligand (1 pM, 100 nM and 10 μM), and a linear extrapolation was used to subtract the non-specific component of binding from each treatment condition. The specific binding component was plotted against the log of the competing ligand and curve fit using a non-linear regression algorithm with PRISM software.

In the next data set the test system is PC3 tumors. Nature of the data set: [18F]-YJH08 uptake in PC3 tumors implanted in the renal capsule. The class given is in vivo, mouse. The settings on record: renal capsule implant, nu/nu mice. As for the experimental part:
For tumor imaging studies, male nu/nu mice were used for the renal capsule tumor implants. The mice were anesthetized with isofluorane (2-3%) and performed with a dorsal midline incision (0.5 cm). With pressure applied on the muscle wall, one kidney was pulled gently and carefully through the small incision. PC3 cells ([…] in 50 μL PBS) were injected under the kidney capsule, which was lifted from the kidney parenchyma. The kidney was placed into the mouse, and the incision closed with 3 surgical sutures. Carprofen (5-10 mg/kg) was administered to the mice during recovery. Mice were observed carefully over 24 hours for the signs of post-operative bleeding, pain and (or) other complications. After surgery, a 14 T Agilent small animal MRI was used to monitor the tumor progression. Animals were studied approximately 10 days post injection of tumor cells.
Lastly, digital autoradiography of the affected kidney was applied to define relative uptake of the radiotracer in the tumor and normal kidney parenchyma (FIGS. 5B and 5C). The radiotracer uptake in the tumor was qualitatively much higher than the level observed in the kidney.

Molecules are shown by their SMILES. Read-outs that look alike come from different tables or passages of the source.

For the compound `COc1cccc2c1-c1ccc3c(c1C(Cc1ccc(F)cc1)O2)C(C)=CC(C)(C)N3` (racemic) [YJH08, 5-(4-fluorobenzyl)-10-methoxy-2,2,4-trimethyl-2,5-dihydro-1H-chromeno[3,4-f]quinoline], on GR, the “fold more potent than the agonist dexamethasone (GR)” value is “about 10 fold” and the “selectivity for GR over other subfamily 3 nuclear hormone receptors” value is listed as “at least 100 fold”. Besides, at GR (DU145 cells, 3H-dexamethasone, Reference = dexamethasone, read-out: Kd GR), the Kd was found to be 0.401 nM. Also, the Kd on GR (read-out: Kd for GR) is approximately 0.4 nM.
As to `COc1cccc2c1-c1ccc3c(c1C(Cc1ccc([18F])cc1)O2)C(C)=CC(C)(C)N3` (racemic) [[18F]-YJH08, [^18F]-5-(4-fluorobenzyl)-10-methoxy-2,2,4-trimethyl-2,5-dihydro-1H-chromeno[3,4-f]quinoline], the “radiotracer uptake in PC3 tumor” value in the data set with PC3 tumors is on record as approximately 3 % ID/g. Moreover, the “affinity for GR” value on GR (in words) is “sub nM”. The “selectivity for GR over other subfamily 3 nuclear hormone receptors” value at GR is reported as “at least 100 fold”.

The term Kd denotes the constant that tells how readily two partners part at equilibrium.
